Assay results as given in patent US9326986B2, “Quinazolinone, quinolone and related analogs as sirtuin modulators” (GLAXOSMITHKLINE LLC, priority 2008, dated 2016).

Molecular target: T1, SIRT1 (Homo sapiens, UniProt Q96EB6)
T1 sequence (Q96EB6 1-747): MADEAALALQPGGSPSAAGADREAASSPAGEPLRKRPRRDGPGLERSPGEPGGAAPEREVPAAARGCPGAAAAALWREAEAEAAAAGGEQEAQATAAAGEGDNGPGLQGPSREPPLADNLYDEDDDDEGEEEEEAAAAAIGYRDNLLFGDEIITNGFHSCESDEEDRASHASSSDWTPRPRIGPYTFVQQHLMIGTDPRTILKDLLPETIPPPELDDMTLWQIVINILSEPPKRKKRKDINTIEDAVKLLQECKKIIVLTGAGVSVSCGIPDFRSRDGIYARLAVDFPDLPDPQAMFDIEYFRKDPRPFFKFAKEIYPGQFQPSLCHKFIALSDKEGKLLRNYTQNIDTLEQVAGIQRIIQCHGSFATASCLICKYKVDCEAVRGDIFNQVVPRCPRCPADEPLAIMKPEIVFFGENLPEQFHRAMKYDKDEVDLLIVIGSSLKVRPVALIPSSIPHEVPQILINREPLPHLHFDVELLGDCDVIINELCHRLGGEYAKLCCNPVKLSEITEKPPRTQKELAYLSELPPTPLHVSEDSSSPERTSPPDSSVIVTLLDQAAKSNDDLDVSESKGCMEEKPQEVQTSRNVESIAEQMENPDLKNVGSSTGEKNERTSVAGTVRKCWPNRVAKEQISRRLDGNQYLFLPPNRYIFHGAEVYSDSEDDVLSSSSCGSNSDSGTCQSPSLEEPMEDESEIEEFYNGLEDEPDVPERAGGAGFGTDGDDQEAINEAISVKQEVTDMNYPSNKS
Assay: Mass spectrometry based assay to identify modulators of SIRT1 activity (deacetylation of p53-based acetylated peptide)
Type: biochemical
Details: 10 nM SIRT1, 0.5 μM peptide substrate, 120 μM βNAD+, 25 minutes at 25° C.; for EC1.5 μM: SIRT1 activation

Row | % Fold Act. (percent maximum fold activation) | EC1.5 μM | Structure (SMILES)
1 | A (Fold activation>200%) | A (EC1.5<1.0 μM) | O=C(Nc1nccs1)c1cncc2c(=O)cc(-c3cccc(C(F)(F)F)c3)[nH]c12 [Compound 449, 4-oxo-N-(thiazol-2-yl)-2-(3-(trifluoromethyl)phenyl)-1,4-dihydro-1,6-naphthyridine-8-carboxamide]
2 | A (Fold activation>200%) | A (EC1.5<1.0 μM) | COc1cccc(C(=O)Nc2cccc3c(=O)cc(-c4cccc(C(F)(F)F)c4)[nH]c23)n1 [Compound 422]
3 | A (Fold activation>200%) | A (EC1.5<1.0 μM) | Cn1c(-c2cccc(C(F)(F)F)c2)nc2c(NC(=O)c3cccc(N4CCCC4)n3)cccc2c1=O [Compound 342]
4 | A (Fold activation>200%) | A (EC1.5<1.0 μM) | Cn1c(-c2cccc(C(F)(F)F)c2)nc2c(C(=O)Nc3cccc(OC[C@H](O)CO)c3)cccc2c1=O [Compound 363]
5 | A (Fold activation>200%) | A (EC1.5<1.0 μM) | O=C(Nc1cccc2c(=O)cc(-c3ccccc3C(F)(F)F)[nH]c12)c1cscn1 [Compound 444]
6 | A (Fold activation>200%) | A (EC1.5<1.0 μM) | O=C(Nc1ccncc1)c1cccc2c(=O)cc(-c3cccc(C(F)(F)F)c3)[nH]c12 [Compound 402]
7 | A (Fold activation>200%) | A (EC1.5<1.0 μM) | Cn1c(-c2cccc(C(F)(F)F)c2)nc2c(NC(=O)c3cccc(N4CCOCC4)c3)cccc2c1=O [Compound 330]
8 | B (Fold Activation<200%) | C (EC1.5>25 μM) | Cn1c(-c2cccc(C(F)(F)F)c2)nc2c(NC(=O)c3cccc(N4CCCC4)c3)cccc2c1=O [Compound 337]
9 | A (Fold activation>200%) | A (EC1.5<1.0 μM) | O=C(Nc1cccc2c(=O)cc(-c3cccc(Cl)c3)[nH]c12)c1cnccn1 [Compound 447]
10 | A (Fold activation>200%) | A (EC1.5<1.0 μM) | O=C(Nc1cccnc1)c1cccc2c(=O)cc(-c3ccccc3C(F)(F)F)[nH]c12 [Compound 437]
11 | A (Fold activation>200%) | A (EC1.5<1.0 μM) | Cn1c(-c2cccc(C(F)(F)F)c2)nc2c(NC(=O)c3cccc(CN4CCOCC4)n3)cccc2c1=O [Compound 332]
12 | A (Fold activation>200%) | A (EC1.5<1.0 μM) | O=C(Nc1cccc2c(=O)cc(-c3cccc(C(F)(F)F)c3)[nH]c12)c1cccnc1 [Compound 419]
13 | B (Fold Activation<200%) | B (EC1.5 1-25 μM) | Cn1c(-c2cccc(C(F)(F)F)c2)nc2c(C(=O)Nc3cccc(N4CCCC4)n3)cccc2c1=O [Compound 350, 3-methyl-4-oxo-N-(6-(pyrrolidin-1-yl)pyridin-2-yl)-2-(3-(trifluoromethyl)phenyl)-3,4-dihydroquinazoline-8-carboxamide]
14 | A (Fold activation>200%) | A (EC1.5<1.0 μM) | O=C(Nc1cccc2c(=O)cc(-c3cccc(C(F)(F)F)c3)[nH]c12)c1cccc(CN2CCOCC2)n1 [Compound 448]
15 | A (Fold activation>200%) | A (EC1.5<1.0 μM) | Cn1c(-c2cccc(C(F)(F)F)c2)nc2c(C(=O)Nc3nc(CN4CCNCC4)cs3)cccc2c1=O [Compound 366]
16 | A (Fold activation>200%) | B (EC1.5 1-25 μM) | O=C(Nc1cccc2c(=O)cc(-c3cccc(Cl)c3)[nH]c12)c1cscn1 [Compound 446]
17 | B (Fold Activation<200%) | B (EC1.5 1-25 μM) | O=C(NC1CCOC1=O)c1cccc2c(=O)cc(-c3cccc(C(F)(F)F)c3)[nH]c12 (stereo not shown) [Compound 413]
18 | A (Fold activation>200%) | A (EC1.5<1.0 μM) | Cc1cc(NC(=O)c2cccc3c(=O)cc(-c4cccc(C(F)(F)F)c4)[nH]c23)on1 [Compound 406]
19 | A (Fold activation>200%) | A (EC1.5<1.0 μM) | O=C(Nc1cccc2c(=O)cc(-c3cccc(C(F)(F)F)c3)[nH]c12)c1ccncn1 [Compound 418]

Continued, molecule first:

Row | Structure (SMILES) | % Fold Act. (percent maximum fold activation) | EC1.5 μM
20 | Cn1c(-c2cnccn2)nc2c(C(=O)Nc3ccccn3)cccc2c1=O [Compound 258] | B (Fold Activation<200%) | C (EC1.5>25 μM)
21 | O=C(Nc1cccc2c(=O)[nH]c(-c3cccc(OC(F)F)c3)nc12)c1cnccn1 [Compound 316] | B (Fold Activation<200%) | C (EC1.5>25 μM)
22 | Cn1c(-c2cccc(C(F)(F)F)c2)nc2c(NC(=O)c3cccnc3)cccc2c1=O [Compound 240] | A (Fold activation>200%) | B (EC1.5 1-25 μM)
23 | Cn1c(-c2ncccn2)nc2c(C(=O)Nc3ccccn3)cccc2c1=O [Compound 259] | B (Fold Activation<200%) | C (EC1.5>25 μM)
24 | Cn1c(-c2cccc(C(F)(F)F)c2)nc2c(NC(=O)c3ccncn3)cccc2c1=O [Compound 245] | A (Fold activation>200%) | A (EC1.5<1.0 μM)
25 | Cn1c(-c2ccccc2OC(F)F)nc2c(C(=O)Nc3ccccn3)cccc2c1=O [Compound 327] | A (Fold activation>200%) | B (EC1.5 1-25 μM)
26 | Cn1c(-c2cccc(C(F)(F)F)c2)nc2c(C(=O)Nc3cccc(OCC(O)CO)c3)cccc2c1=O (stereo not shown) [Compound 286] | A (Fold activation>200%) | A (EC1.5<1.0 μM)
27 | Cc1ncsc1-c1nc2c(NC(=O)c3cnccn3)cccc2c(=O)n1C [Compound 284] | A (Fold activation>200%) | B (EC1.5 1-25 μM)
28 | Cn1c(-c2cccnc2)nc2c(NC(=O)c3cnccn3)cccc2c1=O [Compound 278] | B (Fold Activation<200%) | B (EC1.5 1-25 μM)
29 | CC(C)Cn1c(-c2cccc(C(F)(F)F)c2)nc2c(NC(=O)c3cnccn3)cccc2c1=O [Compound 234] | A (Fold activation>200%) | A (EC1.5<1.0 μM)
30 | Cn1c(-c2cccc(OC(F)(F)F)c2)nc2c(NC(=O)c3cnccn3)cccc2c1=O [Compound 204] | A (Fold activation>200%) | A (EC1.5<1.0 μM)
31 | O=C(Nc1ccccn1)c1cccc2c(=O)[nH]c(-c3ccccc3C(F)F)nc12 [Compound 324] | A (Fold activation>200%) | A (EC1.5<1.0 μM)
32 | Cc1cc(C)nc(NC(=O)c2cccc3c(=O)n(C)c(-c4cccc(C(F)(F)F)c4)nc23)c1 [Compound 306] | A (Fold activation>200%) | A (EC1.5<1.0 μM)
33 | Cn1cnc(-c2nc3c(NC(=O)c4cnccn4)cccc3c(=O)n2C)c1 [Compound 288] | B (Fold Activation<200%) | C (EC1.5>25 μM)
34 | Cn1c(-c2cscn2)nc2c(C(=O)Nc3ccccn3)cccc2c1=O [Compound 225] | B (Fold Activation<200%) | C (EC1.5>25 μM)
35 | Cn1c(-c2cnccn2)nc2c(NC(=O)c3cnccn3)cccc2c1=O [Compound 281] | B (Fold Activation<200%) | C (EC1.5>25 μM)
36 | Cn1nccc1-c1nc2c(C(=O)Nc3ccccn3)cccc2c(=O)n1C [Compound 264] | B (Fold Activation<200%) | C (EC1.5>25 μM)
37 | Cn1ccnc1C(=O)Nc1cccc2c(=O)n(C)c(-c3cccc(C(F)(F)F)c3)nc12 [Compound 238] | A (Fold activation>200%) | B (EC1.5 1-25 μM)
38 | COc1ccc(NC(=O)c2cccc3c(=O)n(C)c(-c4cccc(C(F)(F)F)c4)nc23)cc1OC [Compound 220, N-(3,4-dimethoxyphenyl)-3-methyl-4-oxo-2-(3-(trifluoromethyl)phenyl)-3,4-dihydroquinazoline-8-carboxamide] | A (Fold activation>200%) | A (EC1.5<1.0 μM)
39 | Cn1c(-c2ccccc2)nc2c(C(=O)Nc3ccccn3)cccc2c1=O [Compound 210] | B (Fold Activation<200%) | B (EC1.5 1-25 μM)
40 | Cn1c(-c2cccc(C(F)(F)F)c2)nc2c(C(=O)Nc3nncs3)cccc2c1=O [Compound 299] | A (Fold activation>200%) | B (EC1.5 1-25 μM)
41 | Cn1cc(C(=O)Nc2cccc3c(=O)n(C)c(-c4cccc(C(F)(F)F)c4)nc23)cn1 [Compound 268] | B (Fold Activation<200%) | C (EC1.5>25 μM)
